Measured values reported in patent US9359422B2, “Single chain relaxin polypeptides” (The University of Queensland, priority 2010, dated 2016).
Entries after “also recorded” stand apart in the source; their conditions may differ. Like-named read-outs stand apart in the source and are kept apart here. Where no end group is shown, it is not given here.

Key:
[1] = molecular target: T1, human RXFP3 (Homo sapiens, UniProt Q9NSD7); assay: cAMP activity assay (pCRE β-galactosidase reporter, forskolin-induced) in CHO cells transfected with RXFP3; format: cell-based; conditions: for agonist activity at RXFP3 (inhibition of cAMP activity): RXFP3-expressing cells, 5 μM forskolin; for antagonist activity at RXFP3 (rescue of cAMP levels): in the presence of 10 nM H3 relaxin
T1 construct: expressed in transfected cells
T1 sequence (Q9NSD7 1-469): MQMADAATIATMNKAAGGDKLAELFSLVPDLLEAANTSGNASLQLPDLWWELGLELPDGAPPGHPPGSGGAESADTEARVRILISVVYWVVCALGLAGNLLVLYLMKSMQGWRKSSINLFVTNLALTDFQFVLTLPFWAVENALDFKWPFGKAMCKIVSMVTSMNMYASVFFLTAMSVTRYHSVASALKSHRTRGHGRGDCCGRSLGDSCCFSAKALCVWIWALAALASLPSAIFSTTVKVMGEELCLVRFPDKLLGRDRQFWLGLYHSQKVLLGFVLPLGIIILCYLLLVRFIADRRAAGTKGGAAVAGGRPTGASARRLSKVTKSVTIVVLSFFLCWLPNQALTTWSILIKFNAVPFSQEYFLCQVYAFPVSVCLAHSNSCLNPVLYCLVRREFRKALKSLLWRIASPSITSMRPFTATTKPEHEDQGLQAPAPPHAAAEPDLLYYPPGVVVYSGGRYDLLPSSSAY
Description: For activity determination, a cAMP activity assay was used. CHO cells were cultured in a 1:1 mixture of Dulbecco's modified Eagle's medium and HAMNS-F12 medium supplemented with 10% fetal bovine serum, 1% L-glutamine and 1% penicillin/strepicillin and cultivated in a humidified chamber with 5% CO2 at 37.8° C. 20 000 cells per well were seeded into a pre-coated poly-L lysine 96-wells plate. Cells were incubated over night before being transfected with the mammalian expression vector pcDNA3.1(+)zeo (UMR cDAN Resource Center) carrying human RXFP3 together with a pCRE β-galactosidase reporter plasmid using TransIT-CHO, OptiMEM and CHO-MOJO reagents. Cells were then incubated over night in a humidified chamber with 5% CO2 at 37.8° C. before cAMP assays were performed. […] In brief, the cells were incubated with the peptide for 6 h in a humidified chamber before the media was aspirated off and the cells were frozen at −80° C. To develop the results, the cells were lysed by addition of 25 μl buffer A (5 ml 10 mM sodium phosphate buffer, pH 8.0, 1 ml 0.2 mM MgSO4 and 50 μl 0.01 mM MnCl2 in 44 ml H2O) to each well and incubated on a shaker for 10 min at room temperature before addition of 100 μl Buffer B (5 ml 100 mM sodium phosphate buffer, pH 8.0, 1 ml 2 mM MgSO4, 50 μl 0.1 mM MnCl2, 2.5 ml 0.5% Triton X-100 and 0.16 ml 40 mM β-mercaptoethanol in 41.3 ml H2O) followed by a 10 min incubation. The substrate, chlorophenol red-β-D-galactopyranoside (CPRG), was then added to each well and the reaction was left at room temperature until a absorbance of <1 AU at 570 nm was reached.

[2] = molecular target: T1, human RXFP3; assay: RXFP3 competition binding assay with Eu-DTPA-R3/I5; conditions: for binding affinity for RXFP3 (in words): RXFP3-expressing cells, Eu-labelled H3/INSL5 chimeric polypeptide
[3] = tested on: alcohol-preferring (iP) rats; assay: Operant alcohol self-administration in alcohol-preferring (iP) rats; format: in vivo, rat; conditions: 10% ethanol, FR3, 3 μg, 10 μg or 30 μg via lateral cerebral ventricle cannula, vs normal and vehicle responding
Description: Rats were trained to stably administer 10% ethanol during daily operant session (n=18 rats) and then implanted with guide cannulae aimed at the lateral cerebral ventricle. Following a 7 day recovery period, the rats were re-stabilised on alcohol self-administration under fixed-ratio 3 (FR3) conditions and the effect of B1-22R was examined.
Rats were administered 3 μg, 10 μg or 30 μg of the B1-22R antagonist. […] The effect observed was dose-dependent.

[4] = molecular target: T2, RXFP4 (Homo sapiens, UniProt Q8TDU9); assay: cAMP activity assay in RXFP4-expressing cells; format: cell-based
T2 construct: expressed in transfected cells; host or cells: RXFP4-expressing cells

[5] = tested on: rats; format: in vivo, rat; conditions: 10 μg, 0 to 45 minutes post administration, vs vehicle
Description: The inventors also carried out experiments to determine if the effects may be due to disruption in locomotor skills.

[6] = molecular target: T3, human RXFP1 (Homo sapiens, UniProt Q9HBX9); assay: RXFP1 competition binding assay with Eu-DTPA-H2 relaxin; conditions: HEK-293T cells transfected with RXFP1, Eu-DTPA-H2 relaxin
T3 construct: expressed in transfected cells; host or cells: HEK-293T
T3 sequence (Q9HBX9 1-757): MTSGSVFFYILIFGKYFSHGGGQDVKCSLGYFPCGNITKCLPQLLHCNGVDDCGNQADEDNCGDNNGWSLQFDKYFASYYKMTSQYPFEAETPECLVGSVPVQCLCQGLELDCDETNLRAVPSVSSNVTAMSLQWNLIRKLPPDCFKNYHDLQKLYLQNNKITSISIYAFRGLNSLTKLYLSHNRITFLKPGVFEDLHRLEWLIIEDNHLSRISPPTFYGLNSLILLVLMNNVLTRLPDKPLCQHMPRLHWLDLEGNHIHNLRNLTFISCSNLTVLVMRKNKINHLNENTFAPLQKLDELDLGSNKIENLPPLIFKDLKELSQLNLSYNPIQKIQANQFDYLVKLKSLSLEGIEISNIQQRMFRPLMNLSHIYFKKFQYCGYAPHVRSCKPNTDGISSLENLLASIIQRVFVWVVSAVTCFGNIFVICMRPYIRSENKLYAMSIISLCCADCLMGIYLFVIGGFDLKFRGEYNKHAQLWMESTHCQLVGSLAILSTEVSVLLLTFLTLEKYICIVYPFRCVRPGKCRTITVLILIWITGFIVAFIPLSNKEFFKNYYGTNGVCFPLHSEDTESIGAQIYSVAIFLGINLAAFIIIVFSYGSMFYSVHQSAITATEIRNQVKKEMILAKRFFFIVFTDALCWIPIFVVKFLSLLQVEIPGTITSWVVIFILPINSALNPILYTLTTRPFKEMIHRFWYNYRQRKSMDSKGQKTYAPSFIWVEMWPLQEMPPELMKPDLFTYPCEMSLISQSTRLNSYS
Description: Binding assays were carried out as follows. HEK-293T cells stably transfected with human RXFP3 were plated out onto pre-coated poly-L-lysine 96-well viewplates with a density of 50 000 cells per well. Media was aspirated off and the cells were washed with PBS before different concentrations of peptide diluted in binding buffer (100 mM HEPES, pH 7.6, 5 mM KCl, 1.3 mM MgSO4, 1.5 mM NaOAc, 1 mM EDTA and 10 mM glucose) and 300 μM of Eu-DTPA-R3/15 was added to each well. The cells were incubated at room temperature for 60 min before the peptide solution was aspirated off and the cells washed with PBS. DELFIA enhancement solution was then added and the cells incubated for a further 30-60 min at room temperature, after which the fluorescence was measured using a time resolved fluorometer with excitation at 340 nm an emission at 614 nm.
Similarly, the B1-22R single chain polypeptide was tested for its ability to activate RXFP1 or antagonise the action of H2 relaxin at this receptor. To do so, binding assays were carried out essentially as described above in Example 2 except using HEK-293T cells transfected with RXFP1 and 300 μM of Eu-DTPA-H2 relaxin.

[7] = HEK-293T cells stably transfected with human RXFP3, Eu-DTPA-R3/I5 tracer, n = 3, read-out: pIC50 (n = 3), binding affinities of single chain relaxin polypeptides for RXFP3 (converted)
[8] = HEK-293T cells stably transfected with human RXFP3, Eu-DTPA-R3/I5 tracer, n = 3

T2 sequence (Q8TDU9 whole entry, species assumed): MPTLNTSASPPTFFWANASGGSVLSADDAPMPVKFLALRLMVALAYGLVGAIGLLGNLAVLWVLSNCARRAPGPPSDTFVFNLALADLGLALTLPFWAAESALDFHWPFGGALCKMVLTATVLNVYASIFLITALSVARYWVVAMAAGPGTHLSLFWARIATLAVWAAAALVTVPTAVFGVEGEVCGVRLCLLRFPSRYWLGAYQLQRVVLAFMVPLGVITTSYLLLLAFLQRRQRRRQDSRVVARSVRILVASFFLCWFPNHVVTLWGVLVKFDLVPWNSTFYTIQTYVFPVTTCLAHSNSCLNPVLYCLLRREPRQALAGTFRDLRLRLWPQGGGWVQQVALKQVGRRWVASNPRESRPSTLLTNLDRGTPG

With “H-AAPYGVRLSGREFIRAVIFTSR-NH2 [H3 B2-22R]” the “agonist activity at RXFP3 (inhibition of cAMP activity)” value [1] was “failed to show any agonist activity”, the IC50 [2, 7] was 87.1 nM and the “binding affinity for RXFP3 (in words)” value [2] was “binding affinities for RXFP3 similar to that of B1-22R”.
In the case of H-APYGVRLSGREFIRAVIFTSR-NH2 [H3 B3-22R], the “agonist activity at RXFP3 (inhibition of cAMP activity)” value [1] is reported as “failed to show any agonist activity”, the IC50 [2, 7] is reported as 195 nM and the “binding affinity for RXFP3 (in words)” value [2] is reported as “binding affinities for RXFP3 similar to that of B1-22R”.
H-GVRLSGREFIRAVIFTSR-NH2 [H3 B6-22R] was tested, and the “agonist activity at RXFP3 (inhibition of cAMP activity)” value [1] was “failed to show any agonist activity”, the IC50 [2, 7] was 468 nM and the “binding affinity for RXFP3 (in words)” value [2] was “binding affinities for RXFP3 similar to that of B1-22R”.
In the case of H-PYGVRLSGREFIRAVIFTSR-NH2 [H3 B4-22R], the “agonist activity at RXFP3 (inhibition of cAMP activity)” value [1] is reported as “failed to show any agonist activity”, the IC50 [2, 7] is reported as 219 nM and the “binding affinity for RXFP3 (in words)” value [2] is reported as “binding affinities for RXFP3 similar to that of B1-22R”.
With “H-RAAPYGVRLAGREFIRAVIFTAR-NH2 [H3 B1-22R C10/22A]” the “agonist activity at RXFP3 (inhibition of cAMP activity)” value [1] was “failed to show any agonist activity”, the “antagonist activity at RXFP3 (rescue of cAMP levels)” value (“antagonist activity at RXFP3” below) [1] was “lowest antagonist activity” and the IC50 [2, 7] was 148 nM. For the same substance, the “binding affinity for RXFP3 (in words)” value [2] was “binding affinities for RXFP3 similar to that of B1-22R”.
With “H-RAAPYGVRLSGREFIRAVIFTSGGSRW-OH [H3 B-chain C10/22S, reference compound]” the “binding affinity for RXFP3 (in words)” value [2] was “significantly less efficient in binding this receptor”.
“H-RAAPYGVRLSGREFIRAVIFTSR-NH2 [H3 B1-22R]” was tested, and the ethanol lever presses [3] was “significant decrease in ethanol lever presses; also recorded: dose-dependent”, the “agonist activity at RXFP4” value ([4]; RXFP4-expressing cells, cAMP) was “no agonist activity” and the “antagonist activity at RXFP4” value ([4]; block of INSL5 or H3 relaxin stimulated RXFP4 activation) was “fails to show any observable antagonist activity”. For the same substance, the “agonist activity at RXFP3 (inhibition of cAMP activity)” value [1] was “no such inhibition”, the “antagonist activity at RXFP3” value [1] was “rescued cAMP levels towards 100%” and the “antagonist activity at RXFP3” value ([1]; listed as H1-B22R) was “greatest antagonist activity”. The “locomotor skills (floor plane moves or floor plane distance)” value [5] was “No significant difference”, the “affinity for the RXFP1 receptor” value [6] was “very poor affinity” and the IC50 [2] was 17.8 nM.
In the case of “H-RAAPYGVRLSGREFIRAVIFTSR-OH [H3 B1-22R Acid]”, the “agonist activity at RXFP3 (inhibition of cAMP activity)” value [1] is reported as “failed to show any agonist activity”, the IC50 [2, 7] is reported as 347 nM and the “binding affinity for RXFP3 (in words)” value [2] is reported as “binding affinities for RXFP3 similar to that of B1-22R”.
With H-YGVRLSGREFIRAVIFTSR-NH2 [H3 B5-22R] the “agonist activity at RXFP3 (inhibition of cAMP activity)” value [1] was “failed to show any agonist activity”, the IC50 [2, 7] was 427 nM and the “binding affinity for RXFP3 (in words)” value [2] was “binding affinities for RXFP3 similar to that of B1-22R”.
In the case of RAAPYGVRLSGREFIRAVIFTS [H3 B1-22], the “pIC50 (n = 3), binding affinities of single chain relaxin polypeptides for RXFP3” value [2, 8] is reported as “No activity” and the “binding affinity for RXFP3 (in words)” value [2] is reported as “significantly less efficient in binding this receptor”.
In the case of “RAAPYGVRLSGREFIRAVIFTSGGSRW-OH [H3 B-chain C10/22S, reference compound]”, the IC50 [2, 7] is reported as 2510 nM.
With VRLSGREFIRAVIFTSR [H3 B7-22R] the “agonist activity at RXFP3 (inhibition of cAMP activity)” value [1] was “failed to show any agonist activity”, the “pIC50 (n = 3), binding affinities of single chain relaxin polypeptides for RXFP3” value [2, 8] was “No activity” and the “binding affinity for RXFP3 (in words)” value [2] was “failed to bind RXFP3 at any detectable level”.
